How the values were obtained:
Assay in all cases: relative viability (nuclei count vs DMSO), 5 days (fraction); higher = more cells survive
Avagacestat + Luminespib = compound: NC(=O)[C@@H](CCC(F)(F)F)N(Cc1ccc(-c2ncon2)cc1F)S(=O)(=O)c1ccc(Cl)cc1 [Avagacestat] + CCNC(=O)c1noc(-c2cc(C(C)C)c(O)cc2O)c1-c1ccc(CN2CCOCC2)cc1 [Luminespib] (partner 0.01 µM)
Outline: (§1)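 Nuclei were stained with Hoechst during a one-step fixation (final 0.05% Triton X-100, 1% formaldehyde, 1 ug/ml Hoechst) carried out 5 days after dosing, then counted on 4× images. The cells, lung cancer lines in 1536-well plates, had been dosed by pin tool the day after seeding with one drug alone or a fixed anchor-drug dose plus five library-drug doses (not always all listed) in √10 steps. Relative viability is the nuclei count in treated wells divided by that in vehicle wells, and each value is the median of duplicate plates.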

Avagacestat + Lapatinib = compound: NC(=O)[C@@H](CCC(F)(F)F)N(Cc1ccc(-c2ncon2)cc1F)S(=O)(=O)c1ccc(Cl)cc1 [Avagacestat] + CS(=O)(=O)CCNCc1ccc(-c2ccc3ncnc(Nc4ccc(OCc5cccc(F)c5)c(Cl)c4)c3c2)o1 [Lapatinib] (partner 2 µM)
Outline: as §1

Avagacestat + Olaparib = compound: NC(=O)[C@@H](CCC(F)(F)F)N(Cc1ccc(-c2ncon2)cc1F)S(=O)(=O)c1ccc(Cl)cc1 [Avagacestat] + O=C(c1cc(Cc2n[nH]c(=O)c3ccccc23)ccc1F)N1CCN(C(=O)C2CC2)CC1 [Olaparib] (partner 8 µM)
Outline: as §1

Avagacestat + Decitabine = compound: NC(=O)[C@@H](CCC(F)(F)F)N(Cc1ccc(-c2ncon2)cc1F)S(=O)(=O)c1ccc(Cl)cc1 [Avagacestat] + Nc1ncn([C@H]2C[C@H](O)[C@@H](CO)O2)c(=O)n1 [Decitabine] (partner 2 µM)
Outline: as §1

Cell Line | relative viability (Avagacestat + Luminespib; first compound 0.08 µM) | relative viability (Avagacestat + Luminespib; first compound 0.253 µM) | relative viability (Avagacestat + Luminespib; first compound 0.8 µM) | relative viability (Avagacestat + Luminespib; first compound 2.53 µM) | relative viability (Avagacestat + Luminespib; first compound 8 µM) | relative viability (Avagacestat + Lapatinib; first compound 0.08 µM) | relative viability (Avagacestat + Lapatinib; first compound 0.253 µM) | relative viability (Avagacestat + Lapatinib; first compound 0.8 µM) | relative viability (Avagacestat + Lapatinib; first compound 2.53 µM) | relative viability (Avagacestat + Lapatinib; first compound 8 µM) | relative viability (Avagacestat + Olaparib; first compound 0.08 µM) | relative viability (Avagacestat + Olaparib; first compound 0.253 µM) | relative viability (Avagacestat + Olaparib; first compound 0.8 µM) | relative viability (Avagacestat + Olaparib; first compound 2.53 µM) | relative viability (Avagacestat + Olaparib; first compound 8 µM) | relative viability (Avagacestat + Decitabine; first compound 0.08 µM) | relative viability (Avagacestat + Decitabine; first compound 0.253 µM) | relative viability (Avagacestat + Decitabine; first compound 0.8 µM) | relative viability (Avagacestat + Decitabine; first compound 2.53 µM) | relative viability (Avagacestat + Decitabine; first compound 8 µM)
NCI-H647 | 0.184 | 0.148 | 0.146 | 0.15 | 0.12 | 1.42 | 1.13 | 1.25 | 1.09 | 0.811 | 0.766 | 0.663 | 0.626 | 0.508 | 0.366 | 0.459 | 0.465 | 0.42 | 0.374 | 0.377
NCI-H838 | 0.363 | 0.256 | 0.233 | 0.254 | 0.191 | 1.5 | 1.04 | 1.13 | 0.865 | 0.835 | 1.08 | 0.87 | 0.881 | 0.805 | 0.575 | 0.483 | 0.48 | 0.466 | 0.471 | 0.442
NCI-H727 | 0.36 | 0.343 | 0.289 | 0.355 | 0.39 | 0.939 | 0.875 | 1.19 | 0.876 | 0.671 | 0.735 | 0.875 | 0.698 | 0.745 | 0.788 | 0.889 | 0.815 | 1.06 | 0.836 | 0.875
NCI-H661 | 0.983 | 1.08 | 0.946 | 0.913 | 1.01 | 0.508 | 0.594 | 0.473 | – | 0.497 | 0.795 | 0.918 | 0.771 | 0.774 | 0.725 | 0.585 | 0.568 | 0.608 | 0.56 | 0.558
201T | 1.11 | 1.05 | 1 | 0.964 | 1.04 | 1.04 | 1.06 | 1.12 | 0.995 | 1.01 | 0.925 | 0.812 | 0.871 | 0.79 | 0.737 | 0.861 | 0.885 | 0.888 | 0.801 | 0.767
PC-3 [JPC-3] | 0.677 | 0.81 | 0.785 | 0.671 | 0.628 | 0.485 | 0.541 | 0.472 | 0.479 | 0.475 | 1.21 | 1.28 | 1.36 | 1.13 | 1.2 | 0.857 | 0.808 | 0.824 | 0.789 | 0.87
NCI-H1355 | 0.769 | 0.717 | 0.797 | 0.635 | 0.641 | 1.24 | 1.15 | 1.1 | 0.926 | 0.871 | 0.851 | 0.778 | 0.73 | 0.691 | 0.718 | 0.357 | 0.329 | 0.371 | 0.344 | 0.309
RERF-LC-KJ | 1.72 | 1.39 | 1.36 | 1.35 | 1.13 | 1.12 | 0.887 | 0.871 | 0.889 | 0.751 | 1.07 | 1.12 | 1.06 | 1 | 0.978 | 0.686 | 0.705 | 0.622 | 0.686 | 0.645
LK-2 | 0.185 | 0.176 | 0.198 | 0.154 | 0.169 | 1.13 | 0.985 | 0.785 | 0.521 | 0.76 | 0.846 | 0.806 | 0.8 | 0.505 | 0.77 | 0.413 | 0.269 | 0.256 | – | 0.291
COR-L23 | 1.08 | 0.803 | 1.08 | 0.642 | 0.512 | 1.26 | 1.1 | 1.3 | 0.95 | 0.4 | 0.326 | 0.3 | 0.339 | 0.308 | 0.284 | 0.519 | 0.406 | 0.434 | 0.399 | 0.39
NCI-H1944 | 0.731 | 0.941 | 0.591 | 0.515 | 0.599 | 0.714 | 0.937 | 0.77 | 0.669 | 0.756 | 0.492 | 0.448 | 0.46 | 0.4 | 0.421 | 0.452 | 0.475 | 0.402 | 0.406 | 0.428
HCC-827 | 0.711 | 0.927 | 0.586 | 0.324 | 0.578 | 0.197 | 0.178 | 0.177 | 0.169 | 0.191 | 0.724 | 0.734 | 0.687 | 0.607 | 0.656 | 0.328 | 0.313 | 0.327 | 0.329 | 0.296
NCI-H3122 | 0.0934 | 0.101 | 0.074 | 0.0983 | 0.11 | 1.1 | 1.1 | 1.03 | 1.05 | 0.99 | 0.717 | 0.735 | 0.885 | 0.659 | 0.645 | 0.513 | 0.428 | 0.445 | 0.402 | 0.37
UMC-11 | 1.18 | 1.35 | 1.1 | 1.16 | 1.14 | 1.17 | 1 | 1.26 | 1.1 | 0.921 | 0.387 | 0.698 | 0.356 | 0.385 | 0.389 | 0.657 | 0.57 | 0.585 | 0.602 | 0.597
EMC-BAC-2 | 1.33 | 1.4 | 1.29 | 1.12 | 1.1 | 0.978 | 0.956 | 1.02 | 0.954 | 0.841 | 0.542 | 0.626 | 0.623 | 0.548 | 0.616 | 1.1 | 1.06 | 1.09 | 1.07 | 1.07
